Measured values as given in patent US20080194575A1, “Treatment for non-alcoholic-steatohepatitis” (priority 2006, published 2008).

Legend:
Format in all cases: in vivo, C56BL/6 mice
[1] = test system: MnSOD; experiment: MnSOD mRNA expression in liver by real time RT-PCR; settings: HSD 4 weeks, compound A 30 mg/kg daily subcutaneous, vs vehicle and chow controls (FIG. 5B)
Method: (§1) Animals, feeding and treatments Two groups of 8 week old male C56BL/6 mice were set under a high sucrose containing diet together with 1% Orotic acid (HSD) for 4 weeks (TD 02366, Tekland Mills) (Feldstein et al. J Hepatol, 39:978-983(2003)). All animals were purchased from Jackson Laboratories and were treated and handled following the National Academy of Sciences criteria (NIH publication 86-23 revised 1985). One group of animals received a daily subcutaneous injection of compound A at a concentration of 30 mg/kg (compound A) and the second group received vehicle with the same frequency (Vehicle). Additionally, a third group of mice was fed under a normal chow diet (control).
(§2) RNA isolation and quantitative Real Time PCR RNA from frozen liver tissue was extracted with PeqGOLD-RNAPure kit (Peqlab). First strand synthesis was performed with Oligo dT primers and reverse transcription with M-MLV Reverse Transcriptase (Invitrogen Corp.) Quantitative Real Time PCR was performed with the AbbyPrism 7300 Real-Time PCR system from Applied Biosystems by using SYBR Green Reagent (Applied biosystems). Real time reactions were performed twice in triplicates. All values were normalized to the level of GAPDH. Primer sequences are detailed in Table 1.

[2] = test system: NF-κB; experiment: HSD induced NF-κB activation in liver (I-κBα western blot, p65 immunohistochemistry); settings: HSD 4 weeks, compound A 30 mg/kg daily subcutaneous
Method: as §1
(§3) Histological evaluation Livers from mice were harvested and after fixation with formaldehyde embedded in paraffin for further histological evaluation. Hematoxylin & Eosin staining was performed in liver sections and steatosis was assessed following a semiquantitative scoring system. Oil red 0 staining was performed to evidence the presence of intracellular lipds. Liver fibrosis was determined by Sirius Red which stains collagen fibres. Scoring of fibrosis was performed following the Brunt system. Additionally, immunohistochemistry (IHC) was performed on cryosections for the polyclonal anti-P65 (A) antibody, dilution 1/50 and anti-TNFα antibody, dilution 1/20 (both from Santa Cruz Biotechnology Inc.). […]

[3] = test system: adiponectin; experiment: Serum and liver adiponectin expression by ELISA; settings: after 4 weeks of HSD, compound A 30 mg/kg daily subcutaneous
Method: as §1
(§4) Serum analysis Blood was taken from mice after fasting and glucose levels were measured with Ascensia Elite sensor (Bayer). Serum Insulin (Linco Research) and Adiponectin (R&D systems) levels were quantified by ELISA.

[4] = test system: Catalase; experiment: Catalase mRNA expression in liver by real time RT-PCR; settings: HSD 4 weeks, compound A 30 mg/kg daily subcutaneous, vs vehicle and chow controls
Method: as §1, §2

[5] = test system: CPT-1; experiment: CPT-1 mRNA expression in liver by real time RT-PCR; settings: HSD 4 weeks, compound A 30 mg/kg daily subcutaneous, vs vehicle (FIG. 4B)
Method: as §1, §2

[6] = test system: IL-6; experiment: IL-6 expression in liver by Real Time RT-PCR; settings: HSD 4 weeks, compound A 30 mg/kg daily subcutaneous, HSD/vehicle vs HSD/compound A (FIG. 3A)
Method: as §1, §2

[7] = test system: PPARα; experiment: PPARα expression in liver (real time RT-PCR, western blot); settings: HSD 4 weeks
Method: as §1
(§5) Western blot analysis Whole liver protein extracts were obtained by using ice- cold buffer (20 mM Tris pH 7.5, 150 mM NaCl, 1 mM EGTA, 1 mM EDTA, 1% Triton X-100, 2.5 mM sodium pyrophosphate and cocktail of protease inhibitors). […]
as §2, with “Real time reactions were performed twice in triplicates. All values were normalized to the level of GAPDH. Primer sequences are detailed in Table 1.” left out

[8] = test system: Acyl-CoA oxidase (ACOX); experiment: Acyl-CoA oxidase (ACOX) mRNA expression in liver by real time RT-PCR; settings: HSD 4 weeks, compound A 30 mg/kg daily subcutaneous, vs vehicle (FIG. 4C)
Method: as §1, §2

[9] = test system: HSD induced hepatic steatosis; experiment: Histological evaluation of HSD induced hepatic steatosis (H&E semiquantitative score, Oil-Red-O staining); settings: HSD 4 weeks
Method: as §1, §3

[10] = Serum analysis after fasting in HSD fed mice: blood glucose, serum insulin (insulin resistance); settings: HSD 4 weeks, compound A 30 mg/kg daily subcutaneous
Method: as §1, §4

[11] = test system: TNF; experiment: TNF expression in liver by Real Time RT-PCR; settings: HSD 4 weeks, compound A 30 mg/kg daily subcutaneous, HSD/vehicle vs HSD/compound A (FIG. 3B)
Method: as §1, §2

[12] = test system: Caspase-3; experiment: Caspase-3 activity in whole liver extracts (Ac-DEVD-AMC); settings: HSD 4 weeks, compound A 30 mg/kg daily subcutaneous (FIG. 6A)
Method: as §1
(§6) Detection of apoptosis Apoptotic cell death was determined in liver tissue by using two difference strategies. Caspase-3 activity was analysed in whole liver extracts. Proteins were extracted with the lysis buffer containing 1M Hepes, 10% CHAPS, 0.5 EDTA, 1 m DTT and 0.1 M pefa-block and further incubated with the fluorescent substrate Ac-DEVD-AMC (Biomol). The enzymatic activity was then measured at λ. excitation 390 nm and λ emission 510 nm and the result was corrected with the protein concentration. Additionally, we performed a TUNEL assay on frozen liver sections using the “In situ cell death detection Kit, POD” (Roche Diagnostics Corp.) following manufacturer's instructions.

[13] = test system: HSD induced liver fibrosis; experiment: Liver fibrosis by Sirius red staining, Brunt score; settings: HSD 4 weeks
Method: as §1, §3

[14] = test system: fatty acid translocase/CD36; experiment: Fatty acid translocase/CD36 gene expression in liver by real time RT-PCR; settings: HSD 4 weeks, compound A 30 mg/kg daily subcutaneous (FIG. 4E)
Method: as §1, §2

[15] = test system: hepatocyte apoptosis; experiment: TUNEL assay on frozen liver sections (hepatocyte apoptosis); settings: HSD 4 weeks, compound A 30 mg/kg daily subcutaneous
Method: as §1, §6

[16] = test system: Cytochrome P450 2E1 (CYP2E1); experiment: CYP2E1 mRNA expression in liver by real time RT-PCR; settings: HSD 4 weeks, compound A 30 mg/kg daily subcutaneous (FIG. 5A)
Method: as §1, §2

[17] = High sucrose diet (HSD) induced obesity in mice: body weight gain and abdominal fat; settings: HSD 4 weeks, compound A 30 mg/kg daily subcutaneous
Method: as §1

[18] = test system: PPARγ; experiment: PPARγ expression in liver on the mRNA and protein level; settings: HSD 4 weeks
Method: as §1, §5
as §2, with “Real time reactions were performed twice in triplicates. All values were normalized to the level of GAPDH. Primer sequences are detailed in Table 1.” left out

[19] = compound A 30 mg/kg daily subcutaneous, vs HSD/vehicle

CC(=O)N1CCN(C(=O)c2ccc(Nc3nccc(-c4ccc(Cl)cc4)n3)cc2)CC1 [compound A, 1-(4-{4-[4-(4-Chloro-phenyl)-pyrimidin-2-ylamino]-benzoyl}-piperazin-1-yl)-ethanone]
MnSOD mRNA expression [1]: significantly higher in compound A treated animals compared to vehicle treated mice and chow controls
I-κBα levels, western blot of whole liver extracts ([2]; lower levels in HSD/vehicle): I-κBα was clearly present in HSD/compound A
NF-κB activation, p65 immunohistochemistry on liver sections ([2]; strong activation in HSD/vehicle): stainings were practically negative in HSD/compound A
adiponectin expression in serum ([3]; vs chow controls (FIG. 3C)): no significant change in adiponectin expression
adiponectin expression in liver ([3]; vs chow controls (FIG. 3D)): no significant change in adiponectin expression
Catalase mRNA expression [4]: significantly higher in compound A treated animals compared to vehicle treated mice and chow controls
CPT-1 mRNA expression [5]: up-regulated in livers from mice that received the compound A compared to vehicle treated animals
IL-6 mRNA expression [6]: upregulation of IL-6 and TNF mRNA expression was found compared to the HSD/compound A
PPARα protein, western blot [7, 19]: higher presence of PPARα in livers from HSD/compound A mice than in HSD/vehicle animals
PPARα mRNA expression ([7]; real time RT-PCR, compound A 30 mg/kg daily subcutaneous (FIG. 4A)): significantly higher expression in liver from HSD fed mice treated with compound A
ACOX mRNA expression [8]: up-regulated in livers from mice that received the compound A compared to vehicle treated animals
fat deposits in liver (Oil-Red-O staining) ([9]; compound A 30 mg/kg daily subcutaneous): only minor microvesicular fat dropples could be observed in some of the HSD/compound A mice analysed
liver histology / steatosis (H&E staining) ([9]; compound A 30 mg/kg daily subcutaneous (FIG. 2)): liver histology similar to chow control animals with no clear evidence of fat accumulation
serum insulin levels ([10]; ELISA, vs HSD/vehicle (FIG. 1C)): roughly significantly less blood insulin that HSD/vehicle treated animals (p=0.06)
blood glucose levels ([10]; fasted, HSD/vehicle vs HSD/compound A (FIG. 1B)): blood glucose levels were significantly higher in this group compared to animals treated with either HSD/compound A
TNF mRNA expression [11]: upregulation of IL-6 and TNF mRNA expression was found compared to the HSD/compound A
caspase 3 activity [12]: strongly reduced caspase 3 activity to a level as found in chow control mice
fibrosis score according to Brunt score ([13]; compound A 30 mg/kg daily subcutaneous, HSD/vehicle score 1.6): virtually zero
liver collagen expression (Sirius red staining) ([13]; liver sections, compound A 30 mg/kg daily subcutaneous (FIG. 6B)): no significant degree of collagen expression could be detected
CD36 gene expression [14]: upregulated in HSD/compound A mice
TUNEL-positive cells [15]: increase in TUNEL-positive cells, which could be blocked using compound A
CYP2E1 mRNA expression [16]: reduced HSD induced upregulation of CYP2E1 and its expression was not significantly different than the chow control group
fat accumulation in the abdominal cavity ([17]; macroscopical, vs vehicle and chow control): less amount of fat that was not significantly different compared to control chow mice
body weight gain ([17]; vs HSD/vehicle (FIG. 1A)): significant weight gain was observed in vehicle treated mice after 4 weeks of HSD feeding compared to compound A treated mice
PPARγ mRNA expression ([18]; compound A 30 mg/kg daily subcutaneous (FIG. 4D)): upregulated in livers derived from these animals
PPARγ protein expression, western blot [18, 19]: more pronounced presence in compound A mice
